Patent US7589122B2, “Method for soybean aphid population suppression and monitoring using aphid- and host-plant-associated semiochemical compositions” (MSTRS Technologies, Inc., priority 2004, dated 2009)

What was measured:
[1] = system: antennae of winged soybean aphids, Aphis glycines; assay: EAG responses of winged soybean aphids to soybean associated volatile compounds; settings: relative to the control (FIG. 3)
Excerpt: FIG. 3 is a graph of EAG responses of winged soybean aphids, Aphis glycines, to some soybean associated volatile compounds.
EAG responses of soybean aphids to soybean plant volatiles and their attractiveness in the field. […] All other compounds elicited EAG responses seemed not to be attractive to winged aphids relative to the control.

[2] = system: male and gynoparous female soybean aphids; assay: Field trapping of male and gynoparous soybean aphids with synthetic sex pheromone lures; assay type: in vivo, Aphis glycines; settings: synthetic pheromone lures 10 mg, soybean fields (FIG. 12)
Protocol: FIG. 16 is a graph of mean number of winged soybean aphids caught in water traps baited with different combinations of catnip oil and the two pheromone compounds (n=5, columns with no letters in common are significant different, ANOVA followed by FPLSD test, P<0.05)
(§1) Field Test. Field trapping tests were conducted in soybean field from 2002 to 2003 (Ames, Iowa). Synthetic compounds at a dose of 100 mg (for plant volatiles) and 10 mg for soybean aphid pheromones were prepared in either hexane or methylene chloride or ether. Medical peerless cotton rolls (5 cm long, 100% cotton) were used as dispensers for loading plant volatiles, and borosilicate glass vials (Chromal) were housed for pheromones. Two trap designs were used, and the first type is similar to that described in Zhu et al., (1999), and the second one is the most common trap used for aphid trapping, the water trap. The trap was hung from bamboo stakes, 1.2 m above the ground. Within a replicate (N=5-6), traps were set at least 10 m apart. The traps were checked daily, and trap position within a series was randomized to minimize the effects of habitat heterogeneity.

[3] = system: gynoparous female antennae of soybean aphids; assay: EAG dose-response of gynoparous female soybean aphid antennae to synthetic pheromone compounds; design: species or system Aphis glycines; settings: when pheromone exceeded a 1 mg dosage (FIG. 11 lower)
Excerpt: FIG. 11 is two graphs of EAG dose-response curves from male (upper part) and gynoparous female antennae (lower part) of soybean aphids to synthetic pheromone candidate compounds (n=4; different letters within a series indicate significant differences, ANOVA followed by FPLSD test, P<0.05)
EAG dose-responses of male and gynoparous soybean aphids to the identified sex pheromone compounds.

[4] = system: syrphids; assay: Field trapping of predatory insects with attractant compounds: syrphids; assay type: in vivo, Syrphidae (syrphids); settings: 100 mg bait, Iowa soybean field 2003 (FIG. 7)
Protocol: (§2) FIG. 7 is a graph of the mean number of predatory insects caught in traps baited with 100 mg of methyl salicylate and 2-phenylethanol, and the control from an Iowa soybean field in 2003.
as §1

[5] = system: soybean aphids on soybean plants; assay: Caged greenhouse experiment: effect of methyl salicylate on soybean aphid colonizing and growth; assay type: in vivo, Aphis glycines
Protocol: The effect of Methyl salicylate on soybean aphid growth. This experiment was conducted in the green house, where cages of soybean plants treated with dispensers loaded 4 g of synthetic methyl salicylate. Newly emerged winged soybean aphids on one cut-soybean leaf (dried) were placed in the middle of the cage, which is 30 cm away from the potted soybean plants (V2 stage) with or without treatment of methyl salicylate. For plants treated with methyl salicylate, the cotton roll was placed in the center of the plant, and was replaced with a newly loaded one after one week. The number of winged aphids on each plant were counted 2 hours after introducing the winged aphids, and continued for a week. The number of wingless soybean aphids produced from those landed winged aphids was also counted everyday for about two weeks.

[6] = system: Coccinella septempunctata; assay: Field trapping of predatory insects with attractant compounds: Coccinella septempunctata; assay type: in vivo; settings: 100 mg bait, Iowa soybean field 2003 (FIG. 7)
Protocol: as §2
FIG. 8 is a graph of the mean number of Coccinella septempunctata caught in traps baited with different doses of methyl salicylate from an Iowa soybean field in 2004.
as §1

[7] = system: Harmonia axyridis; assay: Field trapping of predatory insects with attractant compounds: Harmonia axyridis; assay type: in vivo; settings: 100 mg bait, vs control (FIG. 7)
Protocol: as §2, §1

[8] = system: winged soybean aphids; assay: Field trapping of winged soybean aphids with selected soybean volatile compounds; assay type: in vivo, Aphis glycines; settings: traps baited with synthetic soybean volatile, 100 mg, soybean field (FIG. 4)
Protocol: FIG. 4 is a graph of the number of winged soybean aphids caught per trap baited with some selected soybean volatile compounds (synthetic) in the soybean field.
as §1

CC/C=C\CCOC(C)=O [(Z)-3 hexenyl acetate]
EAG responses of winged soybean aphids [1]: significantly stronger than the control

CC1=COC(=O)[C@H]2[C@@H]1CC[C@@H]2C [nepetalactone, (4aS,7S,7aR)-nepetalactone]
number of male and gynoparous soybean aphids caught in traps [2]: Significantly lower catches | EAG response of gynoparous female antennae [3]: higher EAG response

OCCc1ccccc1 [2-phenylethanol]
attraction of syrphids to baited traps [4]: strongest attraction | EAG responses of winged soybean aphids [1]: significantly stronger than the control

COC(=O)c1ccccc1O [methyl salicylate]
growth of wingless soybean aphids on soybean leaves ([5]; caged potted soybean plants treated vs untreated (FIG. 17 lower)): suppress the growth | soybean aphid colonizing on soybean plants (winged aphids found on potted plants) ([5]; caged potted soybean plants treated vs untreated (FIG. 17 upper)): significantly reducing | attraction of syrphids to baited traps [4]: attracted to some syrphids | attraction of adults of Coccinella septempunctata to baited traps [6]: significantly attractive | EAG responses of winged soybean aphids [1]: significantly stronger than the control | number of Harmonia axyridis caught in baited traps [7]: not significantly differed from the control

CC1=CO[C@@H](O)[C@H]2[C@@H]1CC[C@@H]2C [nepetalactol, (1R,4aS,7S,7aR)-nepetalactol]
number of male and gynoparous soybean aphids caught in traps [2]: Significantly lower catches

C=CC(C)(O)CCC=C(C)C (stereo not shown) [linalool]
EAG responses of winged soybean aphids [1]: significantly stronger than the control

CCC/C=C/C=O [(E)-2 hexenal]
EAG responses of winged soybean aphids [1]: highest response

CC/C=C\CCO [(Z)-3 Hexenol]
EAG responses of winged soybean aphids [1]: significantly stronger than the control

C=CC(C)=CCC=C(C)C [ocimene]
EAG responses of winged soybean aphids [1]: significantly stronger than the control

O=Cc1ccccc1 [benzaldehyde]
number of winged soybean aphids caught per trap [8]: caught the most | EAG responses of winged soybean aphids [1]: significantly stronger than the control

CC(=O)CCC=C(C)C [6-methyl-5-hepten-2-one]
EAG responses of winged soybean aphids [1]: significantly stronger than the control
